Measured values: publication PMC10835732, “Pharmacokinetics of Hydroxytyrosol and Its Sulfate and Glucuronide Metabolites after the Oral Administration of Table Olives to Sprague-Dawley Rats” (Journal of Agricultural and Food Chemistry, 2024)
Like-named read-outs stand apart in the source and are kept apart here. Marks after values point to notes of the source that are not given here.

Experiments:
[1] = cited from earlier work; for share represented by hydroxytyrosol sulfates: ref Kotronoulas et al. 39
[2] = Plasma pharmacokinetics (noncompartmental analysis) after single oral administration of Arbequina table olives; assay type: in vivo, Sprague-Dawley rats; details: for AUC0–∞ / Cmax/D / AUC0–∞/D / AUCt/D / Cl/F·fm (apparent clearance of metabolite) / MRT0–∞ / Vdarea/F·fm (apparent volume of distribution of metabolite, terminal phase) / Vss/F·fm (apparent steady-state volume of distribution of metabolite) / t1/2λz (apparent elimination half-life) / λz (apparent elimination rate constant) / AUCt / Cmax: geometric mean (95% CI); for Cmax/D: D = dose of hydroxytyrosol in nmol; for AUC0–∞/D / AUCt/D: D in nmol; for Tmax: median (min, max); for AUCt: time zero up to 8 h; for Cmax / percentage of the AUC of each compound divided by the AUC of the sum of all of them: plasma; for Cmax: read-out: Cmax; for half-life (t1/2λz) / mean residence time (MRT0–∞): oral table olives; for percentage of the AUC of each compound divided by the AUC of the sum of all of them: both doses (similar ratios between doses)
Method: The experiments were performed using Sprague–Dawley rats (n = 13) randomly divided into two groups, the 30 olives group (n = 6) that received the dose of 3.85 g/kg and the 60 olives group (n = 7), which was given the dose of 7.70 g/kg. The freshly prepared homogeneous suspensions were given to overnight fasted rats by oral gavage (18-gauge × 76 mm, ref FFSS-186-76, Instech Laboratories, Inc., Plymouth Meeting, PA). The volume of administration was 10 mL/kg. After the single administration of Arbequina table olives, blood was obtained at 30, 60, 90, 120, 240, 360, and 480 min from each animal. Samples were withdrawn from the lateral saphenous vein and placed into Microvette CB 300 K2 EDTA-K2 (Sarstedt, Granollers, Spain) coated tubes.[31] At each time point, 0.40 mL of blood was collected, meaning that a maximum of 2.4 mL was obtained from each animal. […] Blood corresponding to 480 min was taken by a cardiac puncture with the animal under terminal anesthesia. Plasma was immediately obtained by centrifugation at 1500g at 4 °C for 15 min (Centrifuge Megafuge 1.0R, Heraeus, Boadilla, Spain) and kept at −20 °C until analysis.
Hydroxytyrosol and its metabolites in plasma were determined by liquid–liquid extraction followed by LC-MS/MS analysis as previously described.[11] Briefly, 200 μL of plasma was mixed with 10 μL of freshly prepared 10% ascorbic acid followed by 10 μL of 0.5% acetic acid and 10 μL of 2-(3-hydroxyphenyl) ethanol (10 μM, I.S.). Then, 2 mL of ethyl acetate was added to the samples that were vigorously mixed in a vortex (5 min), placed into an ultrasonic bath (10 min), and centrifuged at 1500g at 4 °C (15 min) (Centrifuge Megafuge 1.0R). A second extraction of the pellet with 2 mL of ethyl acetate was carried out. Subsequently, the two pooled supernatants were evaporated to dryness, reconstituted with 100 μL of 80% methanol, placed into amber vials, and immediately analyzed by LC-MS/MS.
The plasmatic concentrations were calculated by the interpolation of the peak area ratio of hydroxytyrosol versus I.S. on a calibration curve. Calibration standards were constructed with blank plasma obtained by cardiac puncture from overnight fasted rats that had never received either table olives or hydroxytyrosol. […] Results were expressed in nmol per liter of plasma (nmol/L). The method was validated following the EMA guidelines[33] at six different concentrations ranging from 0 to 250 nmol/L analyzed on three different days.
Individual PK of hydroxytyrosol and its metabolites were estimated from the plasma concentrations versus time profiles of each animal, through a noncompartmental analysis (NCA) with Phoenix-64 (Build 8.3.4.295, Certara, Princeton, N.J., USA). All concentrations of each pharmacokinetic profile were considered for NCA because the values obtained were above the LOQ. Peak plasma concentration (Cmax) and time to peak plasma concentration (Tmax) were determined by visual inspection of the pharmacokinetic profiles. The apparent elimination rate constant (λz) was estimated from the terminal slope of the semilogarithmic concentration–time curve. The apparent elimination half-life (t1/2λz) was calculated as t1/2z = 0.693/λz. The area under the plasma concentration–time curve from time zero to the last experimental time (AUCt) with analyte concentrations above the LOQ, was calculated by the linear-log trapezoidal rule. The area from time zero to infinity (AUC0–∞) was calculated by adding to the AUCt value the extrapolated area calculated as the ratio between the predicted concentration (Ct) at the last sampling time with concentrations above the LOQ and λz. The mean residence time (MRT0–∞) was given by the ratio of the area under the first-moment curve (AUMC0–∞) to the area under the zero-moment curve (AUC0–∞). The ratio indicating the relative exposure of each metabolite with respect to hydroxytyrosol (AUC0–∞m/AUC0–∞) was also calculated for all of the metabolites. […]

[3] = 30 olives group (hydroxytyrosol 2.95 mg/kg oral), listed as hydroxytyrosol sulfate M1-a
[4] = 60 olives group (hydroxytyrosol 5.89 mg/kg oral), listed as hydroxytyrosol sulfate M1-a
[5] = both doses (30 and 60 olives groups)
[6] = 30 olives group (hydroxytyrosol 2.95 mg/kg oral), listed as hydroxytyrosol sulfate M1-b
[7] = 60 olives group (hydroxytyrosol 5.89 mg/kg oral), listed as hydroxytyrosol sulfate M1-b

hydroxytyrosol sulfate
share in rat plasma ([1]; after phenolic extract from olive cake containing 10.35 mg/kg of hydroxytyrosol, ref Serra et al. 23): 92%
share represented by hydroxytyrosol sulfates ([1]; oral 10 mg/kg of hydroxytyrosol to rats): 60%
share represented by hydroxytyrosol sulfates ([1]; oral 100 mg/kg of hydroxytyrosol to rats): 75%

hydroxytyrosol sulfate [M1-a]
AUC0–∞ ([2]; 30 olives group (3.85 g olives/kg, hydroxytyrosol 2.95 mg/kg oral), listed as hydroxytyrosol sulfate M1-a): 4765 (3491, 6504)^a min·nmol/L
Cmax/D [2, 3]: 0.00899 (0.00522, 0.01546)^a
AUC0–∞/D [2, 3]: 0.90 (0.68, 1.23)^a
AUCt/D [2, 3]: 0.82 (0.60, 1.11)^a
Cl/F·fm (apparent clearance of metabolite) [2, 3]: 4.02 (2.95, 5.48)^a L/min/kg
MRT0–∞ [2, 3]: 173 (121.9, 245.5)^a min
Vdarea/F·fm (apparent volume of distribution of metabolite, terminal phase) [2, 3]: 491 (190, 1264)^a L/kg
Vss/F·fm (apparent steady-state volume of distribution of metabolite) [2, 3]: 616 (339, 1120)^a L/kg
t1/2λz (apparent elimination half-life) [2, 3]: 130.1 (64.5, 262.2)^a min
λz (apparent elimination rate constant) [2, 3]: 0.0053 (0.0026, 0.011)^a 1/min
Tmax [2, 3]: 45.5 (30, 120)^a min
AUCt [2, 3]: 4321 (3152, 5924)^a min·nmol/L
Cmax ([2]; 30 olives group: single oral 3.85 g destoned olives/kg (hydroxytyrosol 2.95 mg/kg), n = 6, listed as hydroxytyrosol sulfate M1-a): 47.3 nM
AUC0–∞ ([2]; 60 olives group (7.70 g olives/kg, hydroxytyrosol 5.89 mg/kg oral), listed as hydroxytyrosol sulfate M1-a): 13133 (9812, 17577)^b min·nmol/L
Cmax/D [2, 4]: 0.00872 (0.00562, 0.01354)^a
AUC0–∞/D [2, 4]: 1.18 (0.84, 1.64)^a
AUCt/D [2, 4]: 1.02 (0.75, 1.38)^a
Cl/F·fm (apparent clearance of metabolite) [2, 4]: 2.91 (2.17, 3,89)^a L/min/kg
MRT0–∞ [2, 4]: 188.3 (143.6, 246,9)^a min
Vdarea/F·fm (apparent volume of distribution of metabolite, terminal phase) [2, 4]: 479 (290, 790)^a L/kg
Vss/F·fm (apparent steady-state volume of distribution of metabolite) [2, 4]: 548 (380, 789)^a L/kg
t1/2λz (apparent elimination half-life) [2, 4]: 129.4 (83.0, 201.6)^a min
λz (apparent elimination rate constant) [2, 4]: 0.0054 (0.0034, 0.0083)^a 1/min
Tmax [2, 4]: 36 (30, 42)^a min
AUCt [2, 4]: 11376 (8674, 14919)^b min·nmol/L
Cmax ([2]; 60 olives group: single oral 7.70 g destoned olives/kg (hydroxytyrosol 5.89 mg/kg), n = 7, listed as hydroxytyrosol sulfate M1-a): 97.3 nM
AUC ratio of metabolite versus parent hydroxytyrosol (AUC0–∞m/AUC0–∞) [2, 5]: around 1.5
Vss/F·fm and Vdarea/F·fm [2, 5]: approximately 500 L/kg
half-life (t1/2λz) [2, 5]: approximately 2 h
mean residence time (MRT0–∞) [2, 5]: around 3 h
percentage of the AUC of each compound divided by the AUC of the sum of all of them [2]: 12%

hydroxytyrosol sulfate [M1-b]
AUC0–∞ ([2]; 30 olives group (3.85 g olives/kg, hydroxytyrosol 2.95 mg/kg oral), listed as hydroxytyrosol sulfate M1-b): 28084 (20399, 38664)^a min·nmol/L
Cmax/D [2, 6]: 0.0582 (0.0343, 0.0985)^a
AUC0–∞/D [2, 6]: 5.33 (3.89, 7.31)^a
AUCt/D [2, 6]: 5.11 (3.78, 6.90)^a
Cl/F·fm (apparent clearance of metabolite) [2, 6]: 0.68 (0.49, 0.94)^a L/min/kg
MRT0–∞ [2, 6]: 141.4 (118.1, 169.3)^a min
Vdarea/F·fm (apparent volume of distribution of metabolite, terminal phase) [2, 6]: 85.0 (57.2, 126)^a L/kg
Vss/F·fm (apparent steady-state volume of distribution of metabolite) [2, 6]: 96.4 (62.6, 148)^a L/kg
t1/2λz (apparent elimination half-life) [2, 6]: 86.4 (67.7, 110)^a min
λz (apparent elimination rate constant) [2, 6]: 0.0080 (0.0063, 0.01024)^a 1/min
Tmax [2, 6]: 30.50 (30,120)^a min
AUCt [2, 6]: 26907 (19824, 36520)^a min·nmol/L
Cmax ([2]; 30 olives group: single oral 3.85 g destoned olives/kg (hydroxytyrosol 2.95 mg/kg), n = 6, listed as hydroxytyrosol sulfate M1-b): 306 nM
AUC0–∞ ([2]; 60 olives group (7.70 g olives/kg, hydroxytyrosol 5.89 mg/kg oral), listed as hydroxytyrosol sulfate M1-b): 80006 (65787, 97299)^b min·nmol/L
Cmax/D [2, 7]: 0.0491 (0.0333, 0.0726)^a
AUC0–∞/D [2, 7]: 7.17 (5.62, 9.14)^a
AUCt/D [2, 7]: 6.05 (4.76, 7.70)^a
Cl/F·fm (apparent clearance of metabolite) [2, 7]: 0.48 (0.39, 0.58)^a L/min/kg
MRT0–∞ [2, 7]: 198.8 (139.0, 284.3)^a min
Vdarea/F·fm (apparent volume of distribution of metabolite, terminal phase) [2, 7]: 75.1 (45.7, 123)^a L/kg
Vss/F·fm (apparent steady-state volume of distribution of metabolite) [2, 7]: 83.5 (61.6, 112.9)^a L/kg
t1/2λz (apparent elimination half-life) [2, 7]: 129.3 (74.1, 225.6)^a min
λz (apparent elimination rate constant) [2, 7]: 0.0054 (0.0031, 0.0094)^a 1/min
Tmax [2, 7]: 38 (30, 100)^a min
AUCt [2, 7]: 67548 (53591, 85140)^b min·nmol/L
Cmax ([2]; 60 olives group: single oral 7.70 g destoned olives/kg (hydroxytyrosol 5.89 mg/kg), n = 7, listed as hydroxytyrosol sulfate M1-b): 548 nM
Vss/F·fm and Vdarea/F·fm [2, 5]: ~90 L/kg
half-life (t1/2λz) [2, 5]: approximately 2 h
mean residence time (MRT0–∞) [2, 5]: around 3 h
percentage of the AUC of each compound divided by the AUC of the sum of all of them [2]: approximately 73%
